Like-named read-outs stand apart in the source and are kept apart here.
Experiments:
[1] = cited from earlier work
[2] = system: patients with diabetic limb-end gangrene; assay: Clinical observation of diabetic limb-end gangrene treated with Glucosynergy
[3] = Pharmacokinetics of a single oral dose of berberine in human patients; type: in vivo; details: 300 mg orally
[4] = Excretion of labeled berberine after injection into large mice; type: in vivo; details: within six days after injection
From the text: Within the six days after the injection of the labeled berberine into large mice, the amounts of the labeled berberine found in the mice's urine and feces were 73% and 10.9% of the injected concentration respectively. The labeled berberine found in the urine was primarily the original form although some of it became metabolized products.
(§1) All samples are calibrated by using an internal standard.

[5] = parameters: species or system domestic rabbits; details: rabbit, in vivo
Experimental: The effect of the berberine is the most quickly and distributed extensively, when the berberine is labeled with Hydrogen 3 and is administered to domestic rabbits by direct feeding that berberine is injected through a non-invasive tube directly through the mouth or by injection. […] The total amount in the blood plasma is 38%±3%.
as §1

[6] = rabbit, in vivo
Experimental: Pharmokinetic properties of berberine are performed by conventional method involving radioactive isotope. […] All samples are calibrated by using an internal standard.
300 μg quinidine is added to the test tube as an internal standard. One ml chloroform is added into the test tube, which is shaken for ten minutes. Then, the test tube is centrifuged at 400 rev/min for five minutes with a sufficient gravity for separating residues from its liquid. An absolute amount of 0.8 ml of the chloroform is collected by a pipette and is subsequently dried by blowing air. The residue from the dried chloroform is collected and dissolved in a suitable amount of dry ethanol which contains essentially no water. The sample is ready for analysis using thin layer chromatography.
A silica gel plate is cut into nine strips, each being 1.0 cm wide. Separation is conducted under running buffer of ethyl acetate, ethyl methanoate, methanol and water mixture at a ratio of 5.4:4.6:1.2:1.0. The sample size is 5 μl. When a desirable separation is achieved, the strips are scanned for reflective intensity at wavelength λex, 350 nm and λem 550 nm using Japanese Shimatsu CS-900 double wavelengths thin layer reflective straight line scanner with a Xenon lamp. […] All scans are performed with 0.5 mm×10 mm slit, at scanning speed 20 mm/min, and at recording paper speed 10 mm/min.
After the blood serum's pH is adjusted to basic, ethyl ether is used to extract berberine. After it is dried, the residues are dissolved in a mobile phase. A fixed amount of sample is introduced into the HPLC system containing a reverse C18 column. The mobile phase is methanol, water and ethylenediamine at a ratio of 75:25:0.5. The pH is adjusted to 6.8 by using acetic acid. Concentration or amount is monitored at wavelength (λ) 345 nm.
C=Ae^−a+Be^−β−(A−B)e^−kat, where ka is average rate constant weighed by their coefficients: ka=(Aβ+Bα)/(A+B).

[7] = 70 cases Observation Group, 50 cases Contrast Group
[8] = Treatment Group 18 cases, Contrast Group 6 cases

In the case of `OC[C@H]1O[C@@H](O[C@@H]2OC=C[C@H]3[C@H](O)[C@@H]4O[C@]4(CO)[C@@H]23)[C@H](O)[C@@H](O)[C@@H]1O` [catalpol], the “solubility in lipophilic organic solvents” value ([1]; chloroform, benzene, petroleum ether) is listed as “almost insoluble” and the “solubility in water and methanol” value [1] is listed as “highly soluble”.
In the case of `CN(C)C(=N)N=C(N)N` [Glucophage], the “electrocardiogram hypertrophic cardiomyopathy: effective” value [2, 7] is reported as 12 cases, the “electrocardiogram hypertrophic cardiomyopathy: not effective” value [2, 7] is reported as 35 cases and the “electrocardiogram hypertrophic cardiomyopathy: outstandingly effective” value [2, 7] is reported as 3 cases. The “electrocardiogram hypertrophic cardiomyopathy: total effective rate” value [2, 7] was 30%, the Fibrinogen ([2]; After Treatment) was 3.45 ± 0.44 q/L and the HDL ([2]; After Treatment) was 1.12 ± 0.24 mmol/L. For the same molecule, the LDL ([2]; After Treatment) was 4.51 ± 0.81 mmol/L, the “Red Cells Accumulation” value ([2]; After Treatment) was 49.50 ± 4.86% and the TC ([2]; After Treatment) was 5.40 ± 0.76 mmol/L. The TG ([2]; After Treatment) was 3.39 ± 0.76 mmol/L, the “Total Blood Viscosity High Excise” value ([2]; After Treatment) was 6.33 ± 0.34 mpa · s and the “Total Blood Viscosity Low Excise” value ([2]; After Treatment) was 15.19 ± 2.10 mpa · s. The “Viscosity Plasma” value ([2]; After Treatment) was 2.45 ± 0.37, the Fibrinogen ([2]; Before Treatment) was 3.90 ± 0.81 q/L and the HDL ([2]; Before Treatment) was 1.07 ± 0.20 mmol/L. The LDL ([2]; Before Treatment) was 5.27 ± 1.24 mmol/L, the “Red Cells Accumulation” value ([2]; Before Treatment) was 49.58 ± 4.34% and the TC ([2]; Before Treatment) was 5.89 ± 1.17 mmol/L. The TG ([2]; Before Treatment) was 3.54 ± 0.67 mmol/L, the “Total Blood Viscosity High Excise” value ([2]; Before Treatment) was 6.23 ± 0.57 mpa · s and the “Total Blood Viscosity Low Excise” value ([2]; Before Treatment) was 15.21 ± 2.17 mpa · s. For the same molecule, the “Viscosity Plasma” value ([2]; Before Treatment) was 2.72 ± 0.66, the cases ineffective ([2]; Contrast Group 6 cases) was 3 cases and the cases improved [2, 8] was 2 cases. The cases recovered [2, 8] was 1 cases, the “24 hours fixed quantity of uric sugar, Before Treatment” value ([2]; baseline) was 15.23 ± 3.02 g/24 h and the “Serum SOD Vitality, Before Treatment” value ([2]; baseline) was 89.96 ± 18.21 nu/L. For the same molecule, the “24 hours fixed quantity of uric sugar, After Treatment” value ([2]; human, in vivo) was 8.37 ± 1.89 g/24 h, the “Serum SOD Vitality, After Treatment” value ([2]; human, in vivo) was 94.21 ± 17.03 nu/L and the “Serum SOD Vitality, Value of Difference” value ([2]; human, in vivo) was −4.25 ± 3.33 nu/L.
For `COc1ccc2cc3[n+](cc2c1OC)CCc1cc2c(cc1-3)OCO2` [berberine], the “maximum plasma concentration Cmax” value [3] was 395 ng/mL, the “t½ corresponding to elimination rate constant Ke” value [3] was 2.94 h and the Tmax ([3]; human, plasma, po, read-out: time to peak plasma concentration, tmax) was 2.37 h. The half-life ([3]; human, plasma, po, read-out: t½ corresponding to apparent absorption rate constant ka (converted)) was 0.87 h, the “amount of labeled berberine found in feces” value [4] was 10.9 % of the injected concentration and the “amount of labeled berberine found in urine” value [4] was 73 % of the injected concentration. For the same molecule, the “tissue concentration measured by radiation intensity” value [5] was “the highest in the lung, and then in liver, spleen, kidney and heart”, the “total amount in the blood plasma” value [5] was 38%±3% and the “time to maximum concentration in the blood” value [6] was “about 50 minutes”. For the same molecule, the “apparent distribution volume (Vd)” value ([6]; iv) was 22.1 ± 1.71 L/kg, the “apparent half life for elimination (t½ β)” value ([6]; iv) was 35.8 ± 2.0 h and the “apparent half life of distribution (t½ α)” value ([6]; iv) was 1.03 ± 0.11 h. For the same molecule, the apparent drug distribution volume (Vd) ([6]; po) was 20 ± 3 L/kg, the “apparent half life for elimination (t½ β)” value ([6]; po) was 35.3 ± 1.3 h and the “apparent half life of distribution (t½ α)” value ([6]; po) was 1.41 ± 0.16 h. For the same molecule, the “apparent rate constant ka” value ([6]; po) was 2.45±0.22 per hour.
